Laboratory results: patent US4737510A, “Bioactive metabolites from the caribbean sponge agelas coniferin” (priority 1986, dated 1988)
Values joined by “and” are separate entries in the source; they are usually repeats but may differ in a detail not shown here. Identical values can stand only once. Like-named read-outs stand apart in the source and are kept apart here.

Assays:
[1] = test system: vesicular stomatitis virus (VSV); assay: microbe, parasite or virus in culture; assay type: cell-based; details: Vesicular stomatitis virus, in Primates
[2] = test system: Herpes Simplex Virus type 1 (HSV-1); assay: Antiviral activity against HSV-1 determined by Dr. R. G. Hughes, Jr.;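 also: grades: +++ strong ++ moderate + light ± questionable - negative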; assay type: cell-based
[3] = test system: Monkey Kidney Cells (CV-1); assay: Cytotoxicity to monkey kidney cells (CV-1) determined by Dr. R. G. Hughes, Jr.; details: 8 or less essentially indicates noncytotoxicity
[4] = test system: Escherichia coli; assay: Disc diffusion antimicrobial assay, Escherichia coli; assay type: cell-based; details: for zone of inhibition at 10 µg/disc / zone of inhibition at 50 µg/disc / zone of inhibition at 100 µg/disc: Escherichia coli, 6.5 mm disc, read-out: diameter of the clear zone of inhibition; for zone of inhibition at 10 µg/disc / activity against Escherichia coli: 10 μg/disk; for zone of inhibition at 50 µg/disc: 50 μg/disk; for zone of inhibition at 100 µg/disc: 100 μg/disk
[5] = test system: Bacillus subtilis; assay: Disc diffusion antimicrobial assay, Bacillus subtilis; assay type: cell-based; details: for growth inhibition of Bacillus subtilis / zone of inhibition at 10 µg/disc: 10 μg/disk; for zone of inhibition at 10 µg/disc / zone of inhibition at 50 µg/disc / zone of inhibition at 100 µg/disc: Bacillus subtilis, 6.5 mm disc, read-out: diameter of the clear zone of inhibition; for zone of inhibition at 50 µg/disc: 50 μg/disk; for zone of inhibition at 100 µg/disc: 100 μg/disk
[6] = test system: Herpes simplex virus, type I (HSV-1); assay: microbe, parasite or virus in culture; assay type: cell-based; details: for zone of inhibition at 20 µg/disc / zone of inhibition at 50 µg/disc / zone of inhibition at 100 µg/disc / zone of inhibition at 200 µg/disc: Human alphaherpesvirus 1, in Primates
[7] = test system: E. coli strain BR339; assay type: cell-based
[8] = test system: Balanus amphitrite amphitrite; assay: Barnacle settlement assay, facilitation; assay type: in vivo, Balanus amphitrite amphitrite (barnacle); details: Amphibalanus amphitrite
[9] = test system: Balanus amphitrite amphitrite; assay: Barnacle settlement assay, inhibition; assay type: in vivo, Balanus amphitrite amphitrite (barnacle); details: Amphibalanus amphitrite
[10] = Stability of isolated solids; assay type: physicochemical; details: diacetate salts, amorphous solids
[11] = Water solubility (in words); assay type: physicochemical; details: relative to 1a-6a
[12] = read-out: antiviral activity, VSV, ++ scale
[13] = read-out: antiviral activity, VSV, zone diameter
[14] = read-out: antiviral activity, HSV-1, ++ scale
[15] = read-out: antiviral activity, HSV-1, zone diameter

Compound | zone of inhibition at 20 µg/disc [1, 12] | zone of inhibition at 100 µg/disc [1, 12] | zone of inhibition at 200 µg/disc [1, 12] | zone of inhibition at 20 µg/disc [1, 13] | zone of inhibition at 100 µg/disc [1, 13] | HSV-1 activity ([2]; 25 μg/disk) | HSV-1 activity ([2]; 50 μg/disk) | HSV-1 activity ([2]; 100 μg/disk) | cytotoxicity, zone diameter ([3]; 25 μg/disk) | cytotoxicity, zone diameter ([3]; 50 μg/disk) | cytotoxicity, zone diameter ([3]; 100 μg/disk) | zone of inhibition at 10 µg/disc [4] | zone of inhibition at 50 µg/disc [4] | zone of inhibition at 100 µg/disc [4] | zone of inhibition at 10 µg/disc [5] | zone of inhibition at 50 µg/disc [5] | zone of inhibition at 100 µg/disc [5] | zone of inhibition at 20 µg/disc [6, 14] | zone of inhibition at 50 µg/disc [6, 14] | zone of inhibition at 100 µg/disc [6, 14] | other results
Nc1ncc([C@@H]2[C@@H](CNC(=O)c3ccc[nH]3)[C@H](CNC(=O)c3cc(Br)c[nH]3)[C@H]2c2cnc(N)[nH]2)[nH]1 (relative stereo) [Compound 1a, Debromosceptrin Acetate] | < 7 mm | 7 mm | 8 to 10 mm | 0 mm | 7 mm | ± | ± | ± | 5 mm | 5 mm | 5 mm | 0 mm | 8 mm | 11 mm | 7 mm | 11 mm | 12 mm | 11 to 15 mm | 11 to 15 mm | 11 to 15 mm | zone of inhibition at 50 µg/disc [1, 12]: < 7 mm; zone of inhibition at 50 µg/disc [1, 13]: 0 mm; zone of inhibition at 200 µg/disc [1, 13]: 8 mm; growth inhibition of Bacillus subtilis [5]: most active; zone of inhibition at 200 µg/disc [6, 14]: > 16 mm; zone of inhibition at 20 µg/disc [6, 15]: 11 mm; zone of inhibition at 50 µg/disc [6, 15]: 12 mm; zone of inhibition at 100 µg/disc [6, 15]: 15 mm; zone of inhibition at 200 µg/disc [6, 15]: 18 mm; BIA activity [7]: inducers; BIA activity, numerical color intensity scale 0-10 [7]: 10 and 7 and 6
Nc1ncc([C@@H]2[C@@H](CNC(=O)c3cc(Br)c[nH]3)[C@H](CNC(=O)c3cc(Br)c[nH]3)[C@H]2c2cnc(N)[nH]2)[nH]1 (relative stereo) [Compound 2a, Sceptrin Acetate] | 7 mm | 11 to 15 mm | 11 to 15 mm | 7 mm | 11 mm | - | +++ | ++ | 5 mm | 5 mm | 7 mm | 7 mm | 10 mm | 11 mm | 9 mm | 16 mm | 17 mm | 11 to 15 mm | 11 to 15 mm | 11 to 15 mm | EC50 [8]: 0.029 µg/mL; zone of inhibition at 50 µg/disc [1, 12]: 8 to 10 mm; zone of inhibition at 50 µg/disc [1, 13]: 8 mm; zone of inhibition at 200 µg/disc [1, 13]: 13 mm; activity against Escherichia coli [4]: active; growth inhibition of Bacillus subtilis [5]: most active; EC50 [9]: 44 µg/mL; zone of inhibition at 200 µg/disc [6, 14]: > 16 mm; zone of inhibition at 20 µg/disc [6, 15]: 11 mm; zone of inhibition at 50 µg/disc [6, 15]: 13 mm; zone of inhibition at 100 µg/disc [6, 15]: 13 mm; zone of inhibition at 200 µg/disc [6, 15]: 21 mm; BIA activity [7]: inducers; BIA activity, numerical color intensity scale 0-10 [7]: 9 and 6
Nc1ncc([C@@H]2[C@@H](CNC(=O)c3cc(Br)c(Br)[nH]3)[C@H](CNC(=O)c3cc(Br)c(Br)[nH]3)[C@H]2c2cnc(N)[nH]2)[nH]1 (relative stereo) [Compound 3a, Dibromosceptrin Acetate] | < 7 mm | 8 to 10 mm | 11 to 15 mm | 0 mm | 10 mm | - | ++ | +++ | 5 mm | 5 mm | 7 mm | 0 mm | 7 mm | 7 mm | 0 mm | 10 mm | 10 mm | 8 to 10 mm | 11 to 15 mm | 11 to 15 mm | zone of inhibition at 200 µg/disc [1, 13]: 12 mm; zone of inhibition at 200 µg/disc [6, 14]: 11 to 15 mm; zone of inhibition at 20 µg/disc [6, 15]: 9 mm; zone of inhibition at 50 µg/disc [6, 15]: 11 mm; zone of inhibition at 100 µg/disc [6, 15]: 12 mm; zone of inhibition at 200 µg/disc [6, 15]: 14 mm; BIA activity [7]: somewhat less active; BIA activity, numerical color intensity scale 0-10 [7]: 3 and 2
Nc1ncc(C2c3nc(N)[nH]c3CC(CNC(=O)c3cc(Br)c[nH]3)C2CNC(=O)c2cc(Br)c[nH]2)[nH]1 (stereo not drawn) [Compound 4a, Ageliferin Acetate] | < 7 mm | 8 to 10 mm | 11 to 15 mm | 0 mm | 10 mm | - | + | ++ | 5 mm | 5 mm | 8 mm | 7 mm | 9 mm | 9 mm | 10 mm | 15 mm | 16 mm | 8 to 10 mm | 11 to 15 mm | 11 to 15 mm | zone of inhibition at 50 µg/disc [1, 12]: 8 to 10 mm; zone of inhibition at 50 µg/disc [1, 13]: 8 mm; zone of inhibition at 200 µg/disc [1, 13]: 12 mm; activity against Escherichia coli [4]: active; EC50 [9]: 21 µg/mL; zone of inhibition at 200 µg/disc [6, 14]: > 16 mm; zone of inhibition at 20 µg/disc [6, 15]: 10 mm; zone of inhibition at 50 µg/disc [6, 15]: 13 mm; zone of inhibition at 100 µg/disc [6, 15]: 14 mm; zone of inhibition at 200 µg/disc [6, 15]: 17 mm
Nc1ncc(C2c3nc(N)[nH]c3CC(CNC(=O)c3cc(Br)c(Br)[nH]3)C2CNC(=O)c2cc(Br)c[nH]2)[nH]1 (stereo not drawn) [Compound 5a, Bromoageliferin Acetate] | < 7 mm | 8 to 10 mm | 8 to 10 mm | 0 mm | 10 mm | - | ± | ++ | 5 mm | 5 mm | 7 mm | 7 mm | 8 mm | 8 mm | 10 mm | 12 mm | 12 mm | 8 to 10 mm | 11 to 15 mm | 11 to 15 mm | zone of inhibition at 50 µg/disc [1, 12]: < 7 mm; zone of inhibition at 50 µg/disc [1, 13]: 0 mm; zone of inhibition at 200 µg/disc [1, 13]: 10 mm; activity against Escherichia coli [4]: active; zone of inhibition at 200 µg/disc [6, 14]: 11 to 15 mm; zone of inhibition at 20 µg/disc [6, 15]: 9 mm; zone of inhibition at 50 µg/disc [6, 15]: 11 mm; zone of inhibition at 100 µg/disc [6, 15]: 11 mm; zone of inhibition at 200 µg/disc [6, 15]: 13 mm; BIA activity, numerical color intensity scale 0-10 [7]: 3 and 2
NC1=NC(=O)C(C2C(CNC(=O)c3cc(Br)c[nH]3)C(CNC(=O)c3cc(Br)c[nH]3)C2c2cnc(N)[nH]2)N1 (stereo not drawn) [Compound 8a, Oxysceptrin Acetate] | < 7 mm | 8 to 10 mm | 8 to 10 mm | 0 mm | 8 mm | - | - | + | 5 mm | 5 mm | 6 mm | 0 mm | 8 mm | 10 mm | 0 mm | 14 mm | 15 mm | < 7 mm | 8 to 10 mm | 11 to 15 mm | stability [10]: stable; EC50 [8]: 0.017 µg/mL; zone of inhibition at 50 µg/disc [1, 12]: < 7 mm; zone of inhibition at 50 µg/disc [1, 13]: 0 mm; antiviral zone appearance [6]: diffuse zones; zone of inhibition at 200 µg/disc [6, 14]: 11 to 15 mm; zone of inhibition at 20 µg/disc [6, 15]: 0 mm; zone of inhibition at 100 µg/disc [6, 15]: 11 mm; zone of inhibition at 200 µg/disc [6, 15]: 12 mm; water solubility [11]: more water soluble; BIA activity [7]: inducers; BIA activity, numerical color intensity scale 0-10 [7]: 9 and 6; BIA zone appearance [7]: more diffuse zone
